Measurements as given in ChEMBL document CHEMBL5608141, “Identification of compartment-specific drug sensitivities in CRC organoid-stroma co-cultures” (2024).

What was measured:
Format in all cases: functional, Homo sapiens
Set-up in all cases: dose or concentration left out as unconfirmed
Colon cancer organoid [1] = assay: Identification of compartment-specific drug sensitivities in O06 CRC organoid-stroma F06 CAF co-cultures. Organoid is transduced with Lucferase2-P2A-EGFP lentivirus, fibroblast with Renilla-dsRed lentivirus. Dual-Glo Luciferase assay is used to report viability data.
Colon cancer organoid [2] = assay: Identification of compartment-specific drug sensitivities in O14 CRC organoid-stroma F14 CAF co-cultures. Organoid is transduced with Lucferase2-P2A-EGFP lentivirus, fibroblast with Renilla-dsRed lentivirus. Dual-Glo Luciferase assay is used to report viability data.
Colon cancer organoid [3] = assay: Identification of compartment-specific drug sensitivities in O20 CRC organoid-stroma F20 CAF co-cultures. Organoid is transduced with Lucferase2-P2A-EGFP lentivirus, fibroblast with Renilla-dsRed lentivirus. Dual-Glo Luciferase assay is used to report viability data.
[4] = Transduced with Lucferase2-P2A-EGFP lentivirus
[5] = Transduced with Renilla-dsRed lentivirus

Row | SMILES | Cell Viability (Colon cancer organoid [1]; [4]) [%] | Cell Viability (Colon cancer organoid [1]; [5]) [%] | Cell Viability (Colon cancer organoid [2]; [4]) [%] | Cell Viability (Colon cancer organoid [2]; [5]) [%] | Cell Viability (Colon cancer organoid [3]; [4]) [%] | Cell Viability (Colon cancer organoid [3]; [5]) [%]
1 | COc1cc(Nc2nccc(-c3cnn4nc(OC)ccc34)n2)cc(C(F)(F)F)c1 | 29.547 | 143.538 | 7.4245 | 53.4313 | 11.0854 | 189.711
2 | Cn1cnc2c(F)c(Nc3ccc(Br)cc3Cl)c(C(=O)NOCCO)cc21 [SELUMETINIB] | 99.2613 | 98.6384 | 44.7701 | 55.8657 | 54.0546 | 152.417
3 | CCN(Cc1ccc(Cl)cc1)c1ncc(C(=O)NCCCN2CCCC2=O)c(NC2CCCC2)n1 | 93.3549 | 154.26 | 127.363 | 88.0275 | 67.2116 | 104.655
4 | CN(C)C(=O)/C(C#N)=C/c1ccc(-c2nc3cnc4[nH]ccc4c3n2C2CCCCC2)o1 | 57.9428 | 82.2998 | 107.956 | 74.8679 | 75.2682 | 130.215
5 | CCOc1ccn(-c2ccc(F)cc2)c(=O)c1C(=O)Nc1ccc(Oc2ccnc(N)c2Cl)c(F)c1 [BMS-777607] | 91.8113 | 94.0587 | 88.1625 | 100.395 | 100.48 | 72.8578
6 | CCCOc1ccn2c(C(C)=O)cc(-c3cccc(OC)c3)c2c1 | 110.241 | 146.669 | 85.0656 | 86.803 | 77.121 | 110.044
7 | Clc1cc2c(NC3CCCC3)nnc(-c3ccncc3)c2cc1Cl | 131.765 | 133.642 | 104.198 | 96.8835 | 149.848 | 128.6
8 | COCC(=O)NC/C=C/c1ccc2ncnc(Nc3ccc(Oc4ccc(C)nc4)c(C)c3)c2c1 [CP-724714] | 64.178 | 58.1065 | 105.334 | 107.19 | 97.2693 | 94.0282
9 | CCC(F)(F)c1cc(N2CCC(S(C)(=O)=O)CC2)nc2sc(C(N)=O)c(N)c12 [BI-605906] | 93.6384 | 92.3898 | 95.5116 | 75.9837 | 180.529 | 81.0914
10 | CCCc1cc(C)[nH]c(=O)c1CNC(=O)c1cc(-c2ccc(N3CCN(C(C)C)CC3)nc2)cc2c1cnn2C(C)C | 81.1391 | 118.175 | 84.6561 | 97.5786 | 59.2451 | 157.842
11 | O=C(CNCc1cc2ccccc2[nH]1)N[C@H]1CC[C@@H](c2nc3ccccc3[nH]2)CC1 | 85.8975 | 91.436 | 106.264 | 107.393 | 100.403 | 124.153
12 | N#CN1CC[C@H](C(=O)Nc2nc3c(s2)CN(C(=O)CN=[N+]=[N-])CC3)C1 [8RK64] | 104.648 | 104.354 | 81.1298 | 93.9024 | 67.6209 | 105.29
13 | CCOc1ccc(S(=O)(=O)Nc2ccc(Cl)cc2C#Cc2cnc(C(=O)[O-])cc2OC)c2ncccc12.[K+] | 117.764 | 113.31 | 103.028 | 89.48 | 110.493 | 117.362
14 | Cc1cc(-n2nc(Cc3cc(F)cc(C(F)(F)F)c3)nc2C)ccc1C(N)=O [TP-024] | 115.389 | 121.941 | 124.645 | 106.61 | 120.055 | 118.791
15 | COc1cc2ncn(-c3cc(OCc4ccccc4C(F)(F)F)c(C(N)=O)s3)c2cc1OC [GW843682X] | 4.781 | 182.458 | 3.29 | 110.017 | 89.1479 | 152.214
16 | CC1(C)C(N)=Nc2cc(OCCCN3Cc4ccc(OCCc5cn(CC(=O)N6CCC(CCN7CCCC7)CC6)nn5)cc4C3)c(OCC3CC3)cc21 | 85.8179 | 109.54 | 112.775 | 105.217 | 95.5615 | 161.052

Row | SMILES | Cell Viability (Colon cancer organoid [1]; [4]) [%] | Cell Viability (Colon cancer organoid [1]; [5]) [%] | Cell Viability (Colon cancer organoid [2]; [4]) [%] | Cell Viability (Colon cancer organoid [2]; [5]) [%] | Cell Viability (Colon cancer organoid [3]; [4]) [%] | Cell Viability (Colon cancer organoid [3]; [5]) [%]
17 | CN1CCN(C(=O)C(C)(C)c2ccc(C(=O)Nc3cn4cc(-c5cc(C(C)(C)C)cc(C(C)(C)C)c5)ccc4n3)cc2)CC1 [T3-CLK-N] | 112.366 | 80.0588 | 123.449 | 101.908 | 83.0148 | 112.725
18 | Cc1cc(C)cc([C@@H]2c3cc(C)ccc3NC(=O)CN2C(=O)c2ccc(Br)s2)c1 | 107.168 | 464.523 | 110.484 | 405.65 | 135.909 | 541.943
19 | COc1cc(OC)cc(-c2noc(N3CCN(C)C4(CCN(c5ccnc(C)c5)CC4)C3)n2)c1 | 121.179 | 136.172 | 96.7615 | 90.1785 | 136.59 | 146.282
20 | Cc1ccc2nc(CNCCCOc3ccccc3)cc(O)c2c1 [UCSF924] | 107.729 | 156.395 | 102.025 | 95.7371 | 115.834 | 125.381
21 | CC(=O)Nc1c(C(C)=O)c(=O)n(C)c2nc(-c3ccc(Cl)cc3Cl)c(-c3ccc(Cl)cc3)cc12 [NAPHTHYRIDINONE] | 72.6588 | 141.036 | 155.496 | 107.032 | 105.882 | 98.6055
22 | Cc1nc(C2CCN(C(=O)c3ccc(OC(F)(F)F)cc3N)CC2)c2ncc(N3CCN(C)CC3)cc2n1 [BAY-693] | 114.208 | 166.908 | 77.0919 | 74.1942 | 93.6142 | 129.276
23 | CNCc1ccccc1-c1csc([C@@H](C)Nc2nc(C)nc3cc(OC)c(OC)cc23)c1 [BAY-293] | 41.2905 | 141.656 | 65.4303 | 97.5193 | 78.2703 | 145.24
24 | Cc1cc2c(-c3ccco3)cnc(N[C@H]3CCN(C)C[C@@H]3C(=O)NC3CCCCC3)c2[nH]c1=O [GSK791] | 113.813 | 153.556 | 100.549 | 110.493 | 101.663 | 116.18
25 | Cn1cc(CNCC2CCN(c3ncc(C(=O)NO)cn3)CC2)c2ccccc21 [QUISINOSTAT] | 1.095 | 190.694 | 6.037 | 54.4916 | 1.348 | 37.1921
26 | Cl.O=C([C@@H](Cc1cccc(C(F)(F)F)c1)NS(=O)(=O)c1cc(F)c2c(c1)CCNC2)N1CCCC1 | 84.043 | 115.078 | 117.922 | 108.808 | 153.218 | 150.248
27 | Cc1cn(-c2cc(NC(=O)c3ccc4c(c3)CN(c3cncnc3)C[C@@H]4C)cc(C(F)(F)F)c2)cn1 | 82.9908 | 122.253 | 141.09 | 97.6954 | 88.3808 | 107.854
28 | CC(C)NC(=O)N1CC[C@H](NC2=Nc3cc(F)ccc3N(CC(F)F)c3ccc(Cl)cc32)C1 | 50.3719 | 97.5535 | 92.2307 | 99.3787 | 55.1322 | 142.836
29 | Cc1cc2c(cc1N1C(=O)c3cccc4c(CCCO)ccc(c34)C1=O)n(C)c(=O)n2C | 83.3962 | 164.269 | 52.1608 | 93.143 | 35.202 | 231.762
30 | Cc1cc(NC(=O)c2cccc(S(F)(F)(F)(F)F)c2)cc(-n2ccn3nc(-c4cccnc4)cc23)c1 [BAY-309] | 58.4282 | 47.7134 | 149.605 | 88.4633 | 122.672 | 127.793
31 | COc1cc2c(cc1NS(=O)(=O)c1ccc(Br)cc1C)n(C)c(=O)n2C | 53.0589 | 146.987 | 88.9015 | 103.244 | 86.7229 | 193.757
